According to article PMC9396613 (ACS chemical biology, 2022):
Blank lines part the entries; values can stand above or below the molecule they belong to. Bridge positions count the residues as written; N and C are the ends. Ends that are not written are not given here.

Assays:
[1] = test system: rat KCa2.2a channels; settings: read-out: EC50 on rat KCa2.2a (mean ± SD); cited from earlier work
[2] = target: T1, KCa2.3 channels (Homo sapiens, UniProt Q9UGI6); test: Inside-out patch clamp, potentiation of human KCa2.3 channels expressed in HEK293 cells; format: cell-based
[3] = test system: ET cells; test: Cilia length measurement in ET cells by immunostaining; format: cell-based, mouse
[4] = target: T1, KCa2.3 channels; test: Inside-out patch clamp, inhibition of KCa2.3 channels by negative modulator; format: cell-based; settings: read-out: IC50 for inhibition of KCa2.3 channels; 0.5 μM Ca2+; mean ± SD, n = 5
[5] = test system: ET cells; test: Flow-induced cytosolic Ca2+ measurements (Fura-2AM) in ET cells; format: cell-based, mouse; settings: 20 μM

Molecule: Cc1cc(C)n(-c2nc(Nc3ccc(Cl)cc3)c3ncn(C)c3n2)n1 [NS13001]
EC50 [1]: 2200 ± 500 nM

Emax on KCa2.3 channels (I / Imax (%)) ([2]; current at −90 mV normalized to that obtained at 10 μM Ca2+, mean ± SD): 96 ± 10%
selectivity for human KCa2.3 channels over rat KCa2.2a channels ([2]; ratio of EC50 values, Table 1): ~ 2.7 fold
EC50 ([2]; read-out: EC50 on human KCa2.3 (mean ± SD), inside-out patch, HEK293 cells, 0.15 μM Ca2+, currents at −90 mV, mean ± SD): 2700 ± 600 nM
Molecule: Cc1cc(NC2CCCCC2)nc(-n2nc(C)cc2C)n1 [CyPPA]
EC50 [1]: 7500 ± 1600 nM

Molecule: apamin (CNCKAPETALCARRCQQH-NH2; disulfide 1-11, 3-15; UniProt P01500 28-45, looked up)
effect on cilia elongation by compound 4 ([3]; apamin 50 nM with compound 4 20 μM, Arl13b marker): completely abolished the elongating effect

IC50 [4]: 970 ± 390 nM
Molecule: CC(=O)Nc1cccc2[nH]c(N[C@H](C)c3cccc(C(F)(F)F)c3)nc12 [AP14145]
cilia length ([3]; 20 μM for two days, acetylated-α-tubulin staining, mean ± SD): 2.8 ± 0.1 μm
flow-induced peak Ca2+ values compared with control [5]: reduced
flow-induced cytosolic Ca2+ transients compared with control ([5]; shear stress 5 dyn/cm2): much weaker Ca^2+ transients
